Results reported in PMC5648829 (Scientific Reports, 2017).
Values joined by “and” are separate entries in the source; they are usually repeats but may differ in a detail not shown here. Equal values may be shown once. Where a SMILES comes first, the peptide text is derived from it.

Assays:
LTA4H [1] = target: T1, LTA4H (Homo sapiens, UniProt P09960); assay: LTA4H aminopeptidase assay with surrogate substrate Arg-AMC; format: biochemical; parameters: Full-length LTA4H containing a N-terminal (His)6-tag; (His)6-tag (N, cleaved yes); (Gly3-Ser)3 spacer (N, cleaved yes); made in house; host or cells: E. coli BL21 (DE3) star
T1 sequence (P09960 1-611): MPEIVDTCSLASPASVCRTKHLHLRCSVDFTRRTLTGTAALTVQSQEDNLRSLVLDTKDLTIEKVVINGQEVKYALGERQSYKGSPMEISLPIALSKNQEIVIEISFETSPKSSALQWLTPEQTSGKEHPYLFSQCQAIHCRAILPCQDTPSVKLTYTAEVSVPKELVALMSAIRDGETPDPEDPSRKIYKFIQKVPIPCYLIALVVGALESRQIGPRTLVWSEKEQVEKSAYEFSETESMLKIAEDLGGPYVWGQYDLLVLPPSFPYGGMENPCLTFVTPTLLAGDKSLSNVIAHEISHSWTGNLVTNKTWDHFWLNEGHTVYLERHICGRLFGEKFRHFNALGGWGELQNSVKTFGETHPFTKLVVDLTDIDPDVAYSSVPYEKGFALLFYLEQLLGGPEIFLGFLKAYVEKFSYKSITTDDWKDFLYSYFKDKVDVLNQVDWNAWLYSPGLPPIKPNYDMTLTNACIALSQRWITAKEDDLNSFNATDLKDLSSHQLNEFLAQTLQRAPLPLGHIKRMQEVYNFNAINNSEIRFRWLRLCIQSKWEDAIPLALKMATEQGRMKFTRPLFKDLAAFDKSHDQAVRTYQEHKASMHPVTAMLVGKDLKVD
Method: (§1) The LTA4H aminopeptidase assays were run using several surrogate substrates: Arg-Rho110-D-Pro (Arg-Rho, Biosyntan GmbH, Germany) or Arg-AMC (Bachem, Switzerland), Pro-AMC (Bachem, Switzerland) and Ala-AMC (Bachem, Switzerland). Assays were performed at RT in 1536-well plates in Tris buffer, pH 7.2 containing NaCl (100 mM), CaCl2 (2 mM), CHAPS (0.5%) and BSA (0.1%). […] The reaction was incubated between 1–2 h (depending on substrate) prior to reading the increase in fluorescence on an EnVision.

LTA4H [2] = target: T1, LTA4H; assay: LTA4H aminopeptidase assay with surrogate substrate Pro-AMC; format: biochemical; parameters: Full-length LTA4H containing a N-terminal (His)6-tag; (His)6-tag (N, cleaved yes); (Gly3-Ser)3 spacer (N, cleaved yes); made in house; host or cells: E. coli BL21 (DE3) star
Method: as §1

LTA4H [3] = target: T1, LTA4H; assay: LTA4H aminopeptidase assay with surrogate substrate Ala-AMC; format: biochemical; parameters: Full-length LTA4H containing a N-terminal (His)6-tag; (His)6-tag (N, cleaved yes); (Gly3-Ser)3 spacer (N, cleaved yes); made in house; host or cells: E. coli BL21 (DE3) star; details: for Effect on Ala-AMC hydrolysis: Table 1, whether compound increased or inhibited hydrolysis of Ala-AMC by the enzyme; for IC50: Table 2
Method: as §1

LTA4H [4] = target: T1, LTA4H; assay: PGP peptidolysis assay by LC-MS/MS; format: biochemical; parameters: Full-length LTA4H containing a N-terminal (His)6-tag; (His)6-tag (N, cleaved yes); (Gly3-Ser)3 spacer (N, cleaved yes); made in house; host or cells: E. coli BL21 (DE3) star
Method: The aminopeptidase activity of LTA4H was assessed with H-PGP-OH (Bachem, Switzerland) as substrate. Assays were performed at RT in black 384-well low volume plates (Greiner) and analyzed by LC-MS/MS. All compounds were tested as 8 point dose response curves in triplicates included on every plate. 3 µl of compound diluted in assay buffer (Tris (50 mM), NaCl (150 mM), CaCl2 (10 mM) at pH7.5) was transferred to the plate followed by 3 µl of enzyme solution (20 nM LTA4H in assay buffer). The enzyme compound mixture was incubated at room temperature for 15 min prior to the addition of 6 µl substrate solution (800 µM PGP in assay buffer). Upon addition of the substrate, the plate was placed on a shaker at 25 °C for 40 min. The reaction was stopped by addition of 12 µl formic acid (0.2% v/v). The final concentration of the enzyme in the assay was 5 nM, the PGP 400 µM and the compound concentration range was from 50000 nM to 3.2 nM. For peptide quantification, an HPLC instrument from Agilent Series 1290 (binary high pressure gradient system) with detectors UV, fluorescence and mass (single Quad) detectors was used. HPLC was done using an Atlantis T3 column (C18 100 × 2.1mm, […], 100 Å) with A: water (MQ) + 0.1% formic acid and B: acetonitrile + 0.1% formic acid: 0–0.3 min 0% buffer B, then increased to 100% buffer B at 0.31–0.65 min and again decreased to 0% buffer B at 0.66–0.70 min. Flow was set to 1.5 ml/min with start gradient pressure of 400 bar.

human neutrophils [5] = assay: Human neutrophil shape change assay; format: cell-based; details: isolated human neutrophils
Method: Neutrophils were purified by Ficoll density gradient centrifugation from human blood and incubated with graded concentrations of PGP, Ac-PGP or the known neutrophil chemoattractant GROα in assay buffer containing BSA (0.1%) in PBS for 10 min at 37 °C, 5% CO2 and 90% humidity. Cells were then fixed and shape change analyzed by flow cytometry.

[6] = PGP degradation assay in BALF ex-vivo (LC-MS/MS); format: in vitro ADME, mouse; details: BALF of wt and LTA4H-KO mice, 24 h at 37 °C, compared with PBS
Method: 200 µl of BALF were spiked with PGP and Ac-PGP at the final concentration of 10 nM. […] After incubation, samples were filtered (Amicon Ultra-0.5, Membrane Ultracel-30, PMNL 30 kD) by centrifugation (3 min at 10,000 × g). Filtered samples were transferred to vials for liquid chromatography tandem mass spectrometry (LC-MS/MS) analysis. The LC system consisted of an Acquity UPLC I-Class interfaced with a Xevo-TQS triple quadruple MS (Waters). […] PGP was monitored with MRM m/z transitions of 270.1 > 173.1 (quantifier) and 270.1 > 70.1 and 270.1 > 116.1 (qualifiers). Ac-PGP was monitored with m/z transitions of 312.2 > 112.1 (quantifier) and 312.2 > 116.1 and 312.2 > 140.1 (qualifiers).

human neutrophils [7] = assay: Human neutrophil chemotaxis assay; format: cell-based
Method: Purified human neutrophils were labeled with calcein-AM (Fluka, Buchs, Switzerland). Test compounds (PGP, Ac-PGP, RTR, and Ac-RTR) or IL-8 (Sigma) as positive chemoattractant control were diluted in RPMI containing BSA (0.1%) and added at graded concentrations into the wells of a 96-well ChemoTX plate (3.2 mm diameter, 5 µm pore size; NeuroProbe, Gaithersburg, MD). Labeled cells (50,000 per well) were added onto the filters above the wells that received the test compounds. Plates were incubated for 90 min at 37 °C. The filters were removed and fluorescence in the receiving wells was measured using a SpectraMAX Gemini EM instrument (Molecular Devices, Sunnyvale, CA; λex = 485 nm; λem = 538 nm). The chemotactic index was measured as the ratio of fluorescence in the test wells and in control (buffer only) wells.

[8] = Table 1, average of minimum two biological replicates, read-out: IC50 Arg-AMC
[9] = Table 1, read-out: IC50 Pro-AMC
[10] = Table 2, read-out: IC50 Arg-AMC
[11] = Table 2, read-out: IC50 Pro-AMC

| IC50 (LTA4H [1]; [8]) [nM] | IC50 (LTA4H [2]; [9]) [nM] | Effect on Ala-AMC hydrolysis (LTA4H [3]) | Ratio IC50 PGP/Arg-AMC (LTA4H [4]; Table 1) | IC50 (LTA4H [4]; Table 1, read-out: IC50 PGP) [nM] | Compound | also measured |
| --- | --- | --- | --- | --- | --- | --- |
| – | – | – | – | – | O=Cc1ccc(Oc2nc3ncccc3s2)cn1 [Compound 17, 5-(thiazolo[4,5-b]pyridin-2-yloxy)picolinaldehyde] | IC50 (LTA4H [1]; [10]): 82 nM; IC50 (LTA4H [2]; [11]): 560 nM; IC50 (LTA4H [3]): 0.55 µM; Ratio IC50 PGP/Arg-AMC (LTA4H [4]; Table 2, fold selectivity): 14 and 13.5; IC50 (LTA4H [4]; Table 2, read-out: IC50 PGP): 1110 nM |
| – | – | – | – | – | OCc1ccc(Oc2nc3ccccc3s2)cc1 [Compound 14] | IC50 (LTA4H [1]; [10]): 225 nM; IC50 (LTA4H [2]; [11]): 152 nM; IC50 (LTA4H [3]): > 25 µM; Ratio IC50 PGP/Arg-AMC (LTA4H [4]; Table 2, fold selectivity): 0.34; IC50 (LTA4H [4]; Table 2, read-out: IC50 PGP): 76 nM |
| 480 | 470 | increase | 0.07 | 35 | c1ccc(Oc2ccc(-c3cc[nH]c3)cc2)cc1 [Compound 9, 3-(4-phenoxyphenyl)-1H-pyrrole] | – |
| 970 | 1030 | increase | 0.40 | 390 | Nc1nc(-c2ccc(Cc3ccccc3)cc2)cs1 [ARM-1, 4-(4-benzylphenyl) thiazol-2-amine, reference compound] | – |
| 1300 | 1350 | increase | 1.44 | 1870 | Oc1cc(-c2ccc(Oc3ccccc3)cc2)n[nH]1 [Compound 8, 3-(4-phenoxyphenyl)-1H-pyrazol-5-ol] | – |
| – | – | – | – | – | GROα: known chemokine and neutrophil chemoattractant | ED50 neutrophil shape change (human neutrophils [5]): approximately 0.2 nM |
| – | – | – | – | – | O=Cc1ncc(Oc2nc3ccccc3s2)cn1 [Compound 16] | IC50 (LTA4H [1]; [10]): 2580 nM; IC50 (LTA4H [2]; [11]): 15700 nM; IC50 (LTA4H [3]): > 25 µM; IC50 (LTA4H [4]; Table 2, read-out: IC50 PGP): 11200 nM |
| – | – | – | – | – | CC(=O)N1CCC[C@H]1C(=O)NCC(=O)N1CCC[C@H]1C(=O)O [Ac-PGP, N-acetly-Pro-Gly-Pro] (Ac-Pro-Gly-Pro-OH) | Ac-PGP stability in exudates [6]: remained as stable over 24 h at 37 °C as in PBS |
| 270 | 280 | increase | 1.4 | 380 | c1ccc(Cc2ccc(-c3c[nH]cn3)cc2)cc1 [Compound 2, 4-(4-benzylphenyl)-1H-imidazole] | – |
| – | – | – | – | – | c1ccc(Oc2ccc(-c3c[nH]cn3)cc2)cc1 [Compound 6, 5-(4-phenoxyphenyl)-1H-imidazole] | IC50 (LTA4H [1]): 64 nM; IC50 (LTA4H [2]): 77 nM; IC50 (LTA4H [4]): 45 nM |
| – | – | – | – | – | arginine-threonine-arginine [RTR] | neutrophil chemotaxis (human neutrophils [7]; graded concentrations up to mM range, 90 min at 37 °C): entirely negative |
| – | – | – | – | – | IL-8: positive chemoattractant control | neutrophil chemotaxis (human neutrophils [7]; concentration as low as 10 nM): substantial chemotaxis |
| 2870 | 1690 | increase | 0.49 | 1400 | Cn1cnc(-c2ccc(Oc3ccccc3)cc2)c1 [Compound 7, 1-methyl-4-(4-phenoxyphenyl)-1H-imidazole] | – |

| Compound | IC50 (LTA4H [1]; [8]) [nM] | IC50 (LTA4H [2]; [9]) [nM] | Effect on Ala-AMC hydrolysis (LTA4H [3]) | Ratio IC50 PGP/Arg-AMC (LTA4H [4]; Table 1) | IC50 (LTA4H [4]; Table 1, read-out: IC50 PGP) [nM] | also measured |
| --- | --- | --- | --- | --- | --- | --- |
| COc1ccc(Cc2ccccc2)cc1 [4-MDM, 4-Methoxydiphenylmethane, reference compound] | 10100 | 33600 | increase | 0.42 | 4220 | – |
